Results: patent publication US20240268372A1, “Methods and Compositions for Extending Organ and Tissue Preservation” (The General Hospital Corporation, priority 2021, published 2024)

How the values were obtained:
[1] = tested on: whole rat livers; test: Optimized partial freezing of whole rat livers: SNMP recovery after freezing; conditions: −10° C., 1 day; at 3 h
Experimental: (§1) Within this standardized protocol, we first compared GLY, EG, and PG as main permeating CPA using a freezing temperature of −10° C. and storage duration of 1 day (FIG. 37). Using PG as the CPA, we subsequently tested the effect of freezing temperature (−10° C. vs −15° C.) and storage duration (1 day vs 5 days) on liver viability after partial freezing using the same protocol (FIG. 38).
Machine perfusion system: The perfusion system provides a continuous perfusion through the portal vein that is pressure, flow, and temperature controlled. The perfusates can be either recirculated or flushed with a single pass though the liver and perfusates can be changed without interrupting perfusion. The setup and operation of the perfusion system is described in detail elsewhere (see, e.g., ref. 15). There were two oxygenators used in this study, including the Radnoti (Cat #130144) and Affinity Pixie Oxygenator (Cat #BBP241). Due to the flexibility and low cost of the Radnoti oxygenator, it was first used for initial optimization and characterization studies, including determining the effect of permeating CPAs (GLY vs EG vs PG; FIG. 37), temperature (−10 vs −15° C., FIG. 38) storage duration (1 vs 5 days, FIG. 38), and warm ischemic injury. Once the major aspects of the protocol were optimized and characterized, we used the clinical grade Affinity Pixie Oxygenator. […]

[2] = tested on: rat livers; test: Initial partial freezing protocol of rat livers at −6° C., SNMP recovery; conditions: glycerol 6% vol/vol with Snomax 1 g/L, 3-OMG 200 mM, PEG 5%
[3] = tested on: whole rat livers; test: Optimized partial freezing of whole rat livers: ex vivo simulated transplantation (normothermic reperfusion with whole blood); conditions: −10° C., 1 day
Experimental: as §1
The Affinity Pixie Oxygenator is a clinical grade oxygenator that has graduated fiber bundle density technology and radial flow path that is designed to create a more uniform blood flow, enhance gas transfer, reduce pressure drops, and decrease prime volume. Moreover, it also contains a Balance® Biosurface that contains a hydrophilic polymer coating to reduce platelet adhesion and activation. This adaptation to the oxygenator is essential since recirculating whole blood during simulated transplantation may trigger coagulation and inflammatory events that are not representative of in vivo events and could skew observed outcomes.
Machine perfusion system: The perfusion system provides a continuous perfusion through the portal vein that is pressure, flow, and temperature controlled. The perfusates can be either recirculated or flushed with a single pass though the liver and perfusates can be changed without interrupting perfusion. The setup and operation of the perfusion system is described in detail elsewhere (see, e.g., ref. 15). There were two oxygenators used in this study, including the Radnoti (Cat #130144) and Affinity Pixie Oxygenator (Cat #BBP241). Due to the flexibility and low cost of the Radnoti oxygenator, it was first used for initial optimization and characterization studies, including determining the effect of permeating CPAs (GLY vs EG vs PG; FIG. 37), temperature (−10 vs −15° C., FIG. 38) storage duration (1 vs 5 days, FIG. 38), and warm ischemic injury.
Preconditioning during SNMP: Directly after procurement the livers were perfused with 250 ml of SNMP preloading solution (see Table 7 for composition of all solutions). The perfusion temperature was set at 21° C. and perfusion was initiated at 5 ml/min. […] Next, the livers were perfused for 30 additional minutes to allow for cellular uptake of 3-O-methyl-D-glucose (3-OMG).
Preloading of CPAs during HMP: The SNMP preloading solution was gradually switched to HMP preloading solution in […] increments, each with 10% decreasing and 10% increasing volumetric fractions of SNMP and HMP preloading solution, respectively. During this switch, the perfusion temperature was lowered to 4° C., and flows were adjusted to a maximum perfusion pressure of 3 mmHg. Dependent on the flowrate, the solution switch took 10-15 minutes. The HMP preloading was continued for 30 additional minutes to ensure complete equilibration of the solution throughout the peripheral liver tissue.
This was done in 10 fractions of 10 ml, each with 10% decreasing and 10% increasing volumetric fractions of HMP preloading solution and storage solution, respectively. During this switch, the perfusion temperature was maintained at 4° C., and the flowrates were lowered to ensure a maximum perfusion pressure of 3 mmHg. The final 15 ml fraction of 100% storage solution was loaded at a fixed flowrate of 0.5 ml/min.
Partial freezing: After loading of the storage solution, the liver was placed in a bag with 50 ml fresh storage solution and suspended in a pre-cooled chiller (Engel, Schwertberg, Austria). Depending on the experimental condition the chiller temperature was pre-cooled to −10° C. or −15° C. and the liver stored for […] 5 days.

## OCC(O)CO [GLY, glycerol]
[1]
  weight gain during SNMP recovery: 35.00±20.49%
[2]
  vascular resistance (mean±SD): 0.11±0.05 mmHg*min/ml*g
[2]; one-step hand syringe loading
  edema: > 60%
[3]
  bile production during simulated transplantation: did not produce bile
  lactate clearance after first hour of simulated transplantation: not observed
  microscopic tissue structure (H&E, blinded pathologist): most unfavorable results
[3]; at 2 h
  oxygen uptake during simulated transplantation: 17.9 ± 5.86 µL O2/min/g
  tissue adenylate energy charge: 0.064±0.039
  weight gain during simulated transplantation: 19.00±16.63%
[3]; at 2 h of simulated transplantation
  AST levels: 1528±388 U/L
